Measured values taken from PMC8657723, “Novel Pituitary Actions of TAC4 Gene Products in Teleost” (International Journal of Molecular Sciences, 2021).
Entries after “also recorded” stand apart in the source; their conditions may differ.

Tests used:
Format in all cases: cell-based, grass carp (Ctenopharyngodon idellus)
[1] = tested on: grass carp pituitary cells; experiment: Antagonist effect of HK1 on HK2-induced mRNA expression in grass carp pituitary cells; details: HK2 0.1 µM + HK1 1 µM and 10 µM, 24 h
Protocol: (§1) Figure 9 Phe to Val mutation in FXGLM motif in PRL, SLα, and UTS1 regulation by HK2 in grass carp pituitary cells. (A) Effects of HK1-V7F on PRL, SLα, and UTS1 mRNA expression in grass carp pituitary cells. In this experiment, grass carp pituitary cells were incubated for 24 h with increasing levels of HK1-V7F (0.1–1000 nM). (B) Suppressed effects of HK1 on HK2-induced PRL, SLα, and UTS1 mRNA expression in grass carp pituitary cells. Pituitary cells were challenged for 24 h with grass carp HK2 (0.1 µM) in the presence or absence of HK1 (1 µM) and HK1 (10 µM). In these experiment, Trizol method was used to extract total cell RNA, and RT-PCR was used to detect PRL, SLα, and UTS1 mRNA expression. Data presented are expressed as mean ± SEM, and the differences between groups were significant at p-value < 0.05 by labeling diverse letters.
Furthermore, to verify whether HK1 could function as an endogenous antagonist of NKRs, we examined the antagonist effect of HK1 on HK2-induced pituitary hormone genes expression.

[2] = tested on: grass carp pituitary cells; experiment: RT-qPCR of pituitary gene mRNA expression after peptide treatment of grass carp pituitary cells
Excerpt: To further confirm the pituitary actions of HKs in grass carp, trypsin digestion method was used to prepare for grass carp primary cultured pituitary cells. […] After drug treatment, total RNA was extracted from adherent cells by Trizol, and then subjected to reverse transcription using HifairTM III 1st Strand cDNA Synthesis Kit (Yeasen, Shanghai, China). In the present study, β-actin was used as the internal reference gene, and then, the transcript levels of PRL, SLα, CART2, UTS1, and NMB1 were detected by using a ABI 7500 real-time PCR system (see Supplementary Table S2 for primer sequences and PCR condition). In addition, the plasmid DNA containing the gene coding sequence was serially diluted as a standard for data calibration.
In this study, RT-qPCR was used to detect mRNA expression for TAC4, NKRs, PRL, SLα, CART2, UTS1, SN2, and NMB1. In the ABI7500 software, the dynamic mRNA concentration detection range of the double standard curve is 10^5, and the correlation coefficient is >0.95. […] In the transfection experiment, the detected firefly luciferase activity was routinely normalized with the GFP activity expressed in the same well, expressed as the luciferin activity ratio Luc ratio. The data from four parallel experiments was presented as mean ± SEM in the figure. All the data were analyzed by ANOVA, and then subjected to Dunnett’s test in GraphPad Prism 7.0. The significant differences between groups were indicated by p < 0.05.
Figure 5 TAC4 gene products (HK1 and HK2) induced PRL (A) and SLα (B) mRNA expression in grass carp pituitary cells. Time course of grass carp HK1 (1 μM) and HK2 (1 μM) on PRL (A) and SLα (B) mRNA expression in grass carp pituitary cells. Dose-dependence of 24-h treatment with increasing levels of HK1 and HK2 (0.1–1000 nM) on PRL (A) and SLα (B) mRNA expression in grass carp pituitary cells. After drug treatment, the total RNA of the cells was extracted by the Trizol method, and the expression of various genes was detected by RT-PCR. Data presented were expressed as mean ± SEM, and the differences between groups were significant at p-value < 0.05 by labeling diverse letters.
Figure 6 TAC4 gene products (HK1 and HK2) induced CART2, NMB1, and UTS1 mRNA expression in grass carp pituitary cells. Time course of grass carp HK1 (1 μM) and HK2 (1 μM) on CART2 (A), NMB1 (B), and UTS1 (C) mRNA expression in grass carp pituitary cells. Dose-dependence of 24-h treatment with increasing levels of HK1 or HK2 (0.1–1000 nM) on CART2 (A), NMB1 (B), and UTS1 (C) mRNA expression in grass carp pituitary cells. After drug treatment, the total RNA of the cells was extracted by the Trizol method, and the expression of various genes were detected by RT-PCR. Data presented were expressed as mean ± SEM, and the differences between groups were significant at p-value < 0.05 by labeling diverse letters.
as §1

six NKR isoforms = experiment: Functional activation of the six grass carp NKR isoforms, NFAT-Luc reporter in HEK293T cells; details: 24 h
Protocol: To clarify the receptor selectivity of TAC4 gene products, a transfection experiment was conducted in HEK293T cells, and the fluorescent signal was detected by the firefly luciferase reporter gene detection kit. Firstly, the cDNA sequences of neurokinin receptor 1 isoforms a (NK1Ra), neurokinin receptor 1 isoforms b (NK1Rb), NK2R, neurokinin receptor 3 isoforms a1 (NK3Ra1), neurokinin receptor 3 isoforms a2 (NK3Ra2), and neurokinin receptor 3 isoforms b (NK3Rb) were isolated from grass carp pituitary, and the coding region of the six receptors were then subcloned into the eukaryotic expression vector pcDNA3.1. Secondly, the HEK293T cells were co-transfected with the plasmids of NFAT-Luc (Nuclear factor of activated T cells-luciferase), green fluorescent protein (GFP), and each pcDNA3.1-NKRs by using Lipofectamine 3000 (Thermo Fisher). The transfected HEK293T cells were incubated with various concentration HK-1 (1–10,000 nM), HK-2 (1–10,000 nM), or HK1-V7F (1–10,000 nM) for 24 h, respectively. Finally, the transfected cells were collected to detect the luciferase value according to the instructions of the firefly luciferase reporter gene detection kit.
To clarify the receptor selectivity of HK1 and HK2 for the six NKRs, HEK-293T cell lines were established to stably express NK1Ra, NK1Rb, NK2R, NK3Rb, NK3Ra1, or NK3Ra2 were established, respectively. The cells were then used for transfection study with NFAT-Luc vectors, which was allowed for functional evaluation of the activation status of Ca^2+-dependent pathway.
Figure 2 Receptor selectivity of HK1, HK2, and HK1-V7F. The nuclear factor of activated T-cells (NFAT)-Luc reporter together with NK1Ra, NK1Rb, NK2R, NK3Rb, NK3Ra1, or NK3Ra2, were transiently transfected into HEK-293 cells, respectively. The cells were incubated with increasing levels of grass carp HK1, HK2, or HK1-V7F (0.1–1000 nM), respectively. The luciferase activities were normalized against renilla expression in the same sample to adjust for potential variations in transfection efficiency. Each point is determined quadruplicate and is given as a mean ± SEM. The groups denoted by different letters represent significant differences at p-value < 0.05 (ANOVA followed Dunnett’s test).

NK2R = experiment: Functional activation of grass carp NK2R, NFAT-Luc reporter in HEK293T cells; details: among the six NKR isoforms
Protocol: To clarify the receptor selectivity of TAC4 gene products, a transfection experiment was conducted in HEK293T cells, and the fluorescent signal was detected by the firefly luciferase reporter gene detection kit. Firstly, the cDNA sequences of neurokinin receptor 1 isoforms a (NK1Ra), neurokinin receptor 1 isoforms b (NK1Rb), NK2R, neurokinin receptor 3 isoforms a1 (NK3Ra1), neurokinin receptor 3 isoforms a2 (NK3Ra2), and neurokinin receptor 3 isoforms b (NK3Rb) were isolated from grass carp pituitary, and the coding region of the six receptors were then subcloned into the eukaryotic expression vector pcDNA3.1. Secondly, the HEK293T cells were co-transfected with the plasmids of NFAT-Luc (Nuclear factor of activated T cells-luciferase), green fluorescent protein (GFP), and each pcDNA3.1-NKRs by using Lipofectamine 3000 (Thermo Fisher). The transfected HEK293T cells were incubated with various concentration HK-1 (1–10,000 nM), HK-2 (1–10,000 nM), or HK1-V7F (1–10,000 nM) for 24 h, respectively. Finally, the transfected cells were collected to detect the luciferase value according to the instructions of the firefly luciferase reporter gene detection kit. […]
Figure 2 Receptor selectivity of HK1, HK2, and HK1-V7F. […] Each point is determined quadruplicate and is given as a mean ± SEM. […]

[3] = 1 µM, 3 h, 6 h, 24 h, 48 h, RT-qPCR, β-actin
[4] = 0.1–1000 nM, 24 h, RT-qPCR, β-actin
[5] = Figure 9B, 24 h static incubation, HK2 0.1 µM

## TPGLQQVFGLM-NH2 [HK1, grass carp TAC4 mature peptide, …-NH2]
[1]
  suppression of HK2-induced PRL mRNA expression: could not suppress; also recorded: could not block
  suppression of HK2-induced SLα mRNA expression: could not suppress; also recorded: could not block
  suppression of HK2-induced UTS1 mRNA expression: could not suppress; also recorded: could not block
[2]; [3]
  CART2 mRNA expression, time course: no effect
  NMB1 mRNA expression, time course: no effect
  PRL mRNA expression, time course: no effect
  SLα mRNA expression, time course: no effect
  UTS1 mRNA expression, time course: no effect
[2]; [4]
  CART2 mRNA expression, dose-dependence: ineffective
  NMB1 mRNA expression, dose-dependence: ineffective
  PRL mRNA expression, dose-dependence: ineffective
  SLα mRNA expression, dose-dependence: ineffective
  UTS1 mRNA expression, dose-dependence: ineffective
[2]; [5]
  PRL mRNA stimulation compared to HK2: much weaker
  SLα mRNA stimulation compared to HK2: much weaker
  UTS1 mRNA stimulation compared to HK2: much weaker
[2]; grass carp pituitary cells, PRL, SLα, UTS1, NMB1, CART2
  pituitary genes' expression (summary): notably weaker; also recorded: ineffective for the six pituitary genes’ expression
Six NKR isoforms; HEK-293T expressing each NKR
  ED50, NFAT-Luc luciferase activity, NKR isoforms: > 10 µM
Six NKR isoforms; NFAT-Luc luciferase, HEK293T, NK1Ra, NK1Rb, NK2R, NK3Ra1, NK3Ra2, NK3Rb
  activation of the six NKR isoforms (in words): very weak activation; also recorded: relatively low efficient stimulant; also recorded: could barely activate any NKR isoforms
NK2R
  NK2R activation (in words): very weak activation
